1 molecule from ChEMBL document CHEMBL4196050, “Design, synthesis, and biological evaluation of compounds with a new scaffold as anti-neuroinflammatory agents for the treatment of Alzheimer's disease” (Eur J Med Chem, 2018) can be followed below.

The experiment is described as follows: Anti-inflammatory activity in LPS-induced mouse N9 cells assessed as reduction in IL-1beta production pretreated for 18 hrs followed LPS stimulation and measured after 48 hrs by ELISA. The experiment is classed as functional, cell-based. A general note: An ELISA detects its analyte on a solid surface through an enzyme-linked reagent.

With `Cc1cc(-c2ccccc2)nnc1C(=O)N1CCN(c2ncccn2)CC1`, the IC50 (in general, the midpoint of a concentration-inhibition curve) came out at 3.4 nM.
